The values that follow come from article PMC6562865, “Vitis vinifera L. Leaf Extract Inhibits In Vitro Mediators of Inflammation and Oxidative Stress Involved in Inflammatory-Based Skin Diseases” (Antioxidants, 2019).

Read-outs that look alike come from different tables or passages of the source.

Data set [1] in a line: In vitro skin permeation study, Franz diffusion cell method. The class given is in vitro ADME, human. The settings on record: for recovery: human. An excerpt: VVWE was characterized by a validated HPLC-DAD method as previously described. Briefly, two different HPLC methods coupled with a Diode Array Detector (DAD) have been used, the first for anthocyanin detection at 520 nm by the use of a Synergi 4u MAX-RP 80 Å column (250 × 4.60 mm × 4 μm) (Phenomenex, Torrance, CA, USA) and the second for flavonols and caffeic acid derivative detection at 360 nm by Synergi 4u MAX-RP 80 Å column (250 × 2 mm × 4 μm) (Phenomenex, Torrance, CA, USA). The anthocyanins standards, hyperoside and kaempferol-3-O-glucoside, were from Extrasynthese (Genay, France); all the other standards and solvents were bought from Sigma-Aldrich (St. Louis, MO, USA).
The human epidermis membrane used for in vitro permeation studies was obtained from the abdominal skin of a single donor. The epidermis was prepared according to the heat separation method, as previously reported.
Ex vivo skin permeation study: the study was performed using the Franz diffusion cell method. The human epidermis was mounted carefully on the receiver compartment of the Franz’s cell with the stratum corneum side in contact with donor solution. The receiver compartment was filled with freshly prepared degassed HCl 0.1 M solution (receiver phase). VVWE (150 mg) solubilized in 0.1 M HCl:EtOH (50:50, v/v) was loaded in the donor compartment (0.5 mL). At predetermined intervals (1, 5, 7, 24, 32, 48 h), 0.2-mL samples were removed from the receiver compartment and immediately replaced with fresh receiver phase. Sink conditions were maintained throughout the experiment. The samples were assayed by HPLC analysis. Four parallel experiments were performed.

In another data set the test system is IL-8. The data set can be described thus: IL-8 release in HaCaT cells (ELISA). The settings on record: 0.1–100 μM, up to the maximum concentration tested (100 μM). The class given is cell-based, human. As for the experimental part: Cells were grown in 24-well plates for 48 h (30,000 cells per well) before the cytokine treatment. IL-8 was quantified using a Human Interleukin-8 ELISA Development Kit as previously described. Preliminary time-course experiments were performed to set the best conditions for further experiments. HaCaT were treated with TNF-α (10 ng/mL), LPS (5 μg/mL), or H2O2 (100 μM), for 3, 6, 24, and 30 h. The IL-8 secretion induced by TNF-α or LPS was tested after 6 h of treatment, while the 24-h time point was chosen for H2O2. Epigallocatechin-3-gallate (EGCG) (20 μM) was used as the reference inhibitor of IL-8 secretion.
HaCaT cells were grown in 24-well plates for 48 h (30,000 cells per well), washed with phosphate-buffered saline (PBS), and exposed to UVB (40 mJ/cm^2) light source (Triwood 31/36, W36, V230, Helios Italquartz, Milano, Italy) in a glass bath. Radiation time (about 50 s) was adjusted for each experimental day, measuring energy emission by the LP 471 UVB probe (Delta OHM, Padova, Italy). After radiation, serum free fresh culture medium was immediately added. For the evaluation of IL-8 release, cells were treated for additional 9 h, a time point selected in preliminary time-course experiments. For NF-κB (p65) translocation, HaCaT cells were treated for 1 h after UVB radiation. EGCG (20 μM) was used as reference inhibitor.
Background: An ELISA detects its analyte on a solid surface through an enzyme-linked reagent.

Setting [2] is: human epidermis, Franz cell, 150 mg VVWE, four replicates.
[3] abbreviates: µg per g VVWE, human epidermis, Franz cell, 150 mg VVWE.
Setting [4] is: µg per g VVWE, human epidermis, Franz cell, 150 mg VVWE, 48 h, receiver phase.
Setting [5] is: human epidermis, Franz cell, 150 mg VVWE, four replicates, read-out: Permeated Amount (% Recovery) (converted).
Where [6] appears, read: human epidermis, Franz cell, 150 mg VVWE, four replicates, read-out: Retained Amount in the Epidermidis (% Recovery) (converted).

On to `OC[C@H]1O[C@@H](Oc2cc3c(O)cc(O)cc3[o+]c2-c2ccc(O)c(O)c2)[C@H](O)[C@@H](O)[C@@H]1O` [Cyanidin 3-O-glucoside], for which, in data set [1] (setting [2]), the “Permeated Amount (% Recovery)” value is 0.071% and the “Retained Amount in the Epidermidis (% Recovery)” value (“Retained Amount … (% Recovery)” below) stood at 0.013%. Besides, in data set [1] (setting [3]), the “Retained Amount in the Epidermidis ± SD” value was found to be 0.30 ± 0.60 µg/g. The “Permeated Amount ± SD” value in data set [1] (setting [4]) was found to be 1.63 ± 2.08 µg/g.
The like results for `O=c1c(O[C@@H]2O[C@H](CO)[C@@H](O)[C@H](O)[C@H]2O)c(-c2ccc(O)cc2)oc2cc(O)cc(O)c12` [Kaempferol 3-O-glucoside] were, in that order, 0.055%, 0.094%, 3.53 ± 3.90 µg/g and 2.09 ± 1.70 µg/g.
Regarding `O=c1c(O[C@@H]2O[C@H](CO)[C@H](O)[C@H](O)[C@H]2O)c(-c2ccc(O)c(O)c2)oc2cc(O)cc(O)c12` [Hyperoside], the recovery was 0.02% in data set [1] (setting [5]) and 0.058% in data set [1] (setting [6]). The “Retained Amount in the Epidermidis ± SD” value in data set [1] (setting [3]) is listed as 1.34 ± 1.43 µg/g. In data set [1] (setting [4]), the “Permeated Amount ± SD” value was 0.47 ± 0.68 µg/g.
Turning to `COc1cc(-c2[o+]c3cc(O)cc(O)c3cc2O[C@@H]2O[C@H](CO)[C@@H](O)[C@H](O)[C@H]2O)ccc1O` [Peonidin 3-O-glucoside], in data set [1] (setting [2]), the “Permeated Amount (% Recovery)” value is reported as 0.114% and the “Retained Amount … (% Recovery)” value is 0.030%. Further, the “Retained Amount in the Epidermidis ± SD” value in data set [1] (setting [3]) is reported as 0.58 ± 1.17 µg/g. Moreover, the “Permeated Amount ± SD” value in data set [1] (setting [4]) is listed as 2.17 ± 2.72 µg/g.
For the compound `O=C(/C=C/c1ccc(O)c(O)c1)O[C@@H](C(=O)O)[C@@H](O)C(=O)O` [Caftaric acid], in the data set with IL-8, the “IL-8 release induced by TNF-α, pure compounds” value (from here on “IL-8 release induced by TNF-α”) is recorded as “failed to reduce IL-8 release”. The recovery in data set [1] (setting [5]) was 0.476%; in data set [1] (setting [6]), 0.102%. The “Retained Amount in the Epidermidis ± SD” value in data set [1] (setting [3]) stood at 10.20 ± 9.00 µg/g; in data set [1] (µg per g VVWE, human epidermis, Franz cell, 150 mg VVWE, listed as caftaric acid), 10.20 µg/g. The “Permeated Amount ± SD” value in data set [1] (setting [4]) came out at 47.59 ± 27.64 µg/g; in data set [1] (µg per g VVWE, human epidermis, Franz cell, 150 mg VVWE, 48 h, receiver phase, listed as caftaric acid), 47.59 µg/g.
As for `C[C@@H]1O[C@@H](OC[C@H]2O[C@@H](Oc3c(-c4ccc(O)c(O)c4)oc4cc(O)cc(O)c4c3=O)[C@H](O)[C@@H](O)[C@@H]2O)[C@H](O)[C@H](O)[C@H]1O` [Rutin], the recovery in data set [1] (setting [5]) was 0.023%; in data set [1] (setting [6]), 0.061%. Moreover, the “Retained Amount in the Epidermidis ± SD” value in data set [1] (setting [3]) is recorded as 0.80 ± 0.91 µg/g. The “Permeated Amount ± SD” value in data set [1] (setting [4]) is reported as 0.30 ± 0.35 µg/g.
For the compound `OC[C@H]1O[C@@H](Oc2cc3c(O)cc(O)cc3[o+]c2-c2cc(O)c(O)c(O)c2)[C@H](O)[C@@H](O)[C@@H]1O` [Delphinidin 3-O-glucoside], in data set [1] (setting [2]), the “Permeated Amount (% Recovery)” value is 0.050% and the “Retained Amount … (% Recovery)” value turned out to be 0.004%. In addition, the “Retained Amount in the Epidermidis ± SD” value in data set [1] (setting [3]) came to 0.04 ± 0.08 µg/g. The “Permeated Amount ± SD” value in data set [1] (setting [4]) amounted to 0.48 ± 0.68 µg/g.
As to `COc1cc(-c2[o+]c3cc(O)cc(O)c3cc2O[C@@H]2O[C@H](CO)[C@@H](O)[C@H](O)[C@H]2O)cc(OC)c1O` [Malvidin 3-O-glucoside], in data set [1] (setting [2]), the “Permeated Amount (% Recovery)” value is listed as 0.072% and the “Retained Amount … (% Recovery)” value is recorded as 0.023%. Further, the “Retained Amount in the Epidermidis ± SD” value in data set [1] (setting [3]) came to 0.29 ± 0.58 µg/g. For the same compound, the “Permeated Amount ± SD” value in data set [1] (setting [4]) stood at 0.92 ± 1.22 µg/g.
Turning to `O=c1c(O[C@@H]2O[C@H](CO)[C@@H](O)[C@H](O)[C@H]2O)c(-c2ccc(O)c(O)c2)oc2cc(O)cc(O)c12` [Quercetin 3-O-glucoside], in the data set with IL-8, the “IL-8 release induced by TNF-α” value is given as “failed to reduce IL-8 release”. Moreover, the recovery in data set [1] (setting [5]) is 0.04%; in data set [1] (setting [6]), 0.063%. The “Retained Amount in the Epidermidis ± SD” value is recorded as 13.58 ± 15.88 µg/g in data set [1] (setting [3]) and 13.58 µg/g in data set [1] (µg per g VVWE, human epidermis, Franz cell, 150 mg VVWE, listed as quercetin 3-O-glucoside). Further, the “Permeated Amount ± SD” value stood at 8.74 ± 9.50 µg/g in data set [1] (setting [4]) and 8.74 µg/g in data set [1] (µg per g VVWE, human epidermis, Franz cell, 150 mg VVWE, 48 h, receiver phase, listed as quercetin 3-O-glucoside).
Take `COc1cc(-c2[o+]c3cc(O)cc(O)c3cc2O[C@@H]2O[C@H](CO)[C@@H](O)[C@H](O)[C@H]2O)cc(O)c1O` [Petunidin 3-O-glucoside]: in data set [1], the “Permeated Amount (% Recovery)” value stood at 0.058% and the “Permeated Amount ± SD” value turned out to be 0.38 ± 0.53 µg/g.
Regarding `O=C(O)[C@H]1O[C@@H](Oc2c(-c3ccc(O)c(O)c3)oc3cc(O)cc(O)c3c2=O)[C@H](O)[C@@H](O)[C@@H]1O` [Quercetin 3-O-glucuronide], the “IL-8 release induced by TNF-α” value in the data set with IL-8 is “failed to reduce IL-8 release”. For the same compound, the “Permeated Amount (% Recovery)” value in data set [1] is 0.177%.
